According to patent US8063018B2, “Bivalent thrombin binding molecules comprising linkers” (National Research Council of Canada, priority 2004, dated 2011):

How the values were obtained:
thrombin [1] = molecular target: T1, thrombin (Homo sapiens, UniProt P00734); assay: Kinetic amidolytic assay with chromogenic substrate S-2238 (inhibition constants); type: biochemical; conditions: 25° C., S-2238, clotting buffer; read-out: KI, nM (25° C.)
Description: (§1) Peptides were freeze-dried and their identity was confirmed by ion-spray mass spectrometry. Clotting assays were carried out by use of the protocols described previously (DiMaio and others, 1990, 21698-21703; Witting and others, 1992, 737-743). The assay employs bovine plasma fibrinogen dissolved at 0.1% in 50 mM Tris-Cl, 100 mM NaCl, 0.1% PEG-8000 at pH 7.6 (i.e. the clotting buffer). Each assay mixture contained a certain concentration of the peptide, and the reaction was started by the addition of human thrombin to a final concentration of 0.6-1.2 nM. Optical absorbance increase at 420 nm caused by fibrin clot formation was measured at 25° C. or 37° C. using the Spectramax plate reader. The onset clotting time was determined as an intersection of the baseline and the extrapolated linear portion of the OD change curve. The concentration of a peptide needed to double the clotting time was defined as IC50 (DiMaio and others, 1990, 21698-21703). Kinetic amidolytic curves were obtained in clotting buffer at 25° C. using eight inhibitor concentrations and three to five concentrations of the chromogenic substrate S-2238 (Chromogenix) (DiMaio and others, 1990, 21698-21703). Inhibition constants were extracted from Lineweaver-Burk equation by using weighted linear regression. Errors in Ki determination were estimated by using Monte-Carlo sampling with 1-3% variance of the experimental points. Peptide concentrations were determined spectrophotometrically using predicted extinction coefficients at 278 nm (Gill and von Hippel, 1989, 319-326).

thrombin [2] = molecular target: T1, thrombin; assay: Fibrinogen clotting assay catalyzed by thrombin; type: biochemical; conditions: concentration needed to double the clotting time
Description: Curves represent OD420 time course after the addition of 0.6 nM thrombin in the presence of (♦) 0 nM; (◯) 0.5 nM; (□) 1 nM; (Δ) 1.5 nM; (⋄) 2.5 nM; (●) 3.75 nM; (▪) 6.25 nM; and (▴) […] of the inhibitor with linker (GS)n and n=2 (SEQ. ID. NO. 50) (a); n=4 (SEQ. ID. NO. 51) (b); n=6 (SEQ. ID. NO. 52) (c); n=8 (SEQ. ID. NO. 53) (d); n=10 (SEQ. ID. NO. 54) (e); and in the presence of (♦) 0 nM; (◯) 1 nM; (□) 2 nM; (Δ) 4 nM; (⋄) 6 nM; (●) 10 nM; (▪) 15 nM; and (▴) 25 nM of the inhibitor with linker (GS)n and n=12 (SEQ. ID. NO. 55) (f); n=14 (SEQ. ID. NO. 56) (g), at 37° C. The onset clotting time was determined as an intersection of the baseline and the extrapolated linear portion of the OD change curve. […] Curves (i) represent OD420 time course in the presence of (A) 0 nM; (◯) 1 nM; (□) 2 nM; (Δ) 4 nM; (⋄) 6 nM; and (●) 15 nM of the inhibitor with linker […] (SEQ. ID. NO. 103), at 37° C. […] represent OD420 time course in the presence of (◯) 0 nM; (□) 2 nM; (Δ) 4 nM; (⋄) 6 nM; (●) 8 nM; (▪) 10 nM; (▴) 12 nM; and (♦) 15 nM; of the inhibitor with linker […] (SEQ. ID. NO. 58) at 25° C. Curves (k) represent OD420 time course in the presence of (◯) 0 nM; (□) 0.5 nM; (Δ) 1 nM; (⋄) 2 nM; (●) 3 nM; (▪) 4 nM; (▴) 5 nM; and (♦) 6 nM; of the inhibitor with linker […] (SEQ. ID. NO. 105) at 37° C. Curves (I) represent OD420 time course in the presence of (◯) 0 nM; (□) 0.25 nM; (Δ) 0.5 nM; (⋄) 1 nM; (●) 1.5 nM; (▪) 2 nM; and (▴) 2.5 nM; of the inhibitor with linker […] (SEQ. ID. NO. 104) at 37° C. Curves (m) represent OD420 time course in the presence of (◯) 0 nM; (□) 2 nM; (Δ) 4 nM; (⋄) 6 nM; (●) 8 nM; (▴) 10 nM; and (A) 12 nM; of the inhibitor with linker […] (SEQ. ID. NO. 106) at 37° C. Curves (n) represent OD420 time course in the presence of (◯) 0 nM; (□) 1 nM; (Δ) 2 nM; (⋄) 3 nM; (●) 4 nM; (▪) 5 nM; (▴) 6 nM; and (♦) 7 nM; of the inhibitor with linker […] (SEQ. ID. NO. 107) at 37° C. Curves (o) represent OD420 time course in the presence of (◯) 0 nM; (□) 4 nM; and (Δ) 8 nM; of the inhibitor with linker GQSHNR (SEQ. ID. NO. 108) at 37° C.
Other experimental conditions were as used for the assays described in FIG. 2.
as §1, with “Clotting” for “Peptides were freeze-dried and their identity was confirmed by ion-spray mass spectrometry. Clotting”, “points.” for “points. Peptide concentrations were determined spectrophotometrically using predicted extinction coefficients at 278 nm (Gill and von Hippel, 1989, 319-326).”

Row | SMILES | Ki (thrombin [1]) [nM] | IC50 (thrombin [2]; IC50, nM (37° C.), 37° C.) [nM] | IC50 (thrombin [2]; IC50, nM (25° C.), 25° C.) [nM]
1 | CC[C@H](C)[C@H](NC(=O)[C@H](CCC(=O)O)NC(=O)[C@H](CCC(=O)O)NC(=O)[C@H](Cc1ccccc1)NC(=O)[C@H](CC(=O)O)NC(=O)CNC(=O)[C@H](CO)NC(=O)CNC(=O)[C@H](CO)NC(=O)CNC(=O)[C@H](CO)NC(=O)CNC(=O)[C@H](CO)NC(=O)CNC(=O)[C@H](CO)NC(=O)CNC(=O)[C@H](CO)NC(=O)CNC(=O)[C@H]1CCCCN1C(=O)[C@H](CCCNC(=N)N)NS(=O)(=O)c1ccc(C(C)(C)C)cc1)C(=O)N1CCC[C@H]1C(=O)N[C@@H](CCC(=O)O)C(=O)N[C@@H](CCC(=O)O)C(=O)N[C@@H](Cc1ccc(O)cc1)C(=O)N[C@@H](CC(C)C)C(=O)N[C@@H](CCC(N)=O)C(=O)O [P3151] | 0.6 ± 0.1 | 0.5 ± 0.1 | –
2 | CC[C@H](C)[C@H](NC(=O)[C@H](CCC(=O)O)NC(=O)[C@H](CCC(=O)O)NC(=O)[C@H](Cc1ccccc1)NC(=O)[C@H](CC(=O)O)NC(=O)CNC(=O)[C@H](CO)NC(=O)CNC(=O)[C@H](CO)NC(=O)CNC(=O)[C@H](CO)NC(=O)CNC(=O)[C@H](CO)NC(=O)CNC(=O)[C@H](CO)NC(=O)CNC(=O)[C@H](CO)NC(=O)CNC(=O)[C@H](CO)NC(=O)CNC(=O)[C@H](CO)NC(=O)CNC(=O)[C@H](CO)NC(=O)CNC(=O)[C@H](CO)NC(=O)CNC(=O)[C@H]1CCCCN1C(=O)[C@H](CCCNC(=N)N)NS(=O)(=O)c1ccc(C(C)(C)C)cc1)C(=O)N1CCC[C@H]1C(=O)N[C@@H](CCC(=O)O)C(=O)N[C@@H](CCC(=O)O)C(=O)N[C@@H](Cc1ccc(O)cc1)C(=O)N[C@@H](CC(C)C)C(=O)N[C@@H](CCC(N)=O)C(=O)O [P3153] | 2 ± 0.3 | 1 ± 0.1 | –
3 | CC[C@H](C)[C@H](NC(=O)[C@H](CCC(=O)O)NC(=O)[C@H](CCC(=O)O)NC(=O)[C@H](Cc1ccccc1)NC(=O)[C@H](CC(=O)O)NC(=O)CNC(=O)[C@H](CO)NC(=O)CNC(=O)[C@H](CO)NC(=O)CNC(=O)[C@H](CO)NC(=O)CNC(=O)[C@H](CO)NC(=O)CNC(=O)[C@H](CO)NC(=O)CNC(=O)[C@H](CO)NC(=O)CNC(=O)[C@H](CO)NC(=O)CNC(=O)[C@H](CO)NC(=O)CNC(=O)[C@H](CO)NC(=O)CNC(=O)[C@H](CO)NC(=O)CNC(=O)[C@H](CO)NC(=O)CNC(=O)[C@H](CO)NC(=O)CNC(=O)[C@H](CO)NC(=O)CNC(=O)[C@H](CO)NC(=O)CNC(=O)[C@H]1CCCCN1C(=O)[C@H](CCCNC(=N)N)NS(=O)(=O)c1ccc(C(C)(C)C)cc1)C(=O)N1CCC[C@H]1C(=O)N[C@@H](CCC(=O)O)C(=O)N[C@@H](CCC(=O)O)C(=O)N[C@@H](Cc1ccc(O)cc1)C(=O)N[C@@H](CC(C)C)C(=O)N[C@@H](CCC(N)=O)C(=O)O [P3159] | 6.7 ± 1.9 | 3.5 ± 0.2 | –
4 | CC[C@H](C)[C@H](NC(=O)[C@H](CCC(=O)O)NC(=O)[C@H](CCC(=O)O)NC(=O)[C@H](Cc1ccccc1)NC(=O)[C@H](CC(=O)O)NC(=O)CNC(=O)[C@H](CO)NC(=O)CNC(=O)[C@H](CO)NC(=O)CNC(=O)[C@H](CO)NC(=O)CNC(=O)[C@H](CO)NC(=O)CNC(=O)[C@H](CO)NC(=O)CNC(=O)[C@H](CO)NC(=O)CNC(=O)[C@H](CO)NC(=O)CNC(=O)[C@H](CO)NC(=O)CNC(=O)[C@H](CO)NC(=O)CNC(=O)[C@H](CO)NC(=O)CNC(=O)[C@H](CO)NC(=O)CNC(=O)[C@H](CO)NC(=O)CNC(=O)[C@H]1CCCCN1C(=O)[C@H](CCCNC(=N)N)NS(=O)(=O)c1ccc(C(C)(C)C)cc1)C(=O)N1CCC[C@H]1C(=O)N[C@@H](CCC(=O)O)C(=O)N[C@@H](CCC(=O)O)C(=O)N[C@@H](Cc1ccc(O)cc1)C(=O)N[C@@H](CC(C)C)C(=O)N[C@@H](CCC(N)=O)C(=O)O [P3160] | 4.6 ± 0.8 | 2.8 ± 0.1 | –
5 | CC[C@H](C)[C@H](NC(=O)[C@H](CCC(=O)O)NC(=O)[C@H](CCC(=O)O)NC(=O)[C@H](Cc1ccccc1)NC(=O)[C@H](CC(=O)O)NC(=O)CNC(=O)[C@H](CO)NC(=O)[C@@H](NC(=O)[C@H](CCCCN)NC(=O)[C@H](CCC(=O)O)NC(=O)[C@H](Cc1ccc(O)cc1)NC(=O)[C@H](Cc1c[nH]cn1)NC(=O)[C@@H]1CCCN1C(=O)[C@H](CO)NC(=O)CNC(=O)[C@H]1CCCCN1C(=O)[C@H](CCCNC(=N)N)NS(=O)(=O)c1ccc(C(C)(C)C)cc1)C(C)C)C(=O)N1CCC[C@H]1C(=O)N[C@@H](CCC(=O)O)C(=O)N[C@@H](CCC(=O)O)C(=O)N[C@@H](Cc1ccc(O)cc1)C(=O)N[C@@H](CC(C)C)C(=O)N[C@@H](CCC(N)=O)C(=O)O [P3169] | 1 ± 0.2 | – | 0.4
6 | CC[C@H](C)[C@H](NC(=O)[C@H](CCC(=O)O)NC(=O)[C@H](CCC(=O)O)NC(=O)[C@H](Cc1ccccc1)NC(=O)[C@H](CC(=O)O)NC(=O)CNC(=O)[C@H](CO)NC(=O)[C@@H](NC(=O)[C@H](CCCCN)NC(=O)[C@H](CCC(=O)O)NC(=O)[C@H](Cc1ccc(OP(=O)(O)O)cc1)NC(=O)[C@H](Cc1c[nH]cn1)NC(=O)[C@@H]1CCCN1C(=O)[C@H](CO)NC(=O)CNC(=O)[C@H]1CCCCN1C(=O)[C@H](CCCNC(=N)N)NS(=O)(=O)c1ccc(C(C)(C)C)cc1)C(C)C)C(=O)N1CCC[C@H]1C(=O)N[C@@H](CCC(=O)O)C(=O)N[C@@H](CCC(=O)O)C(=O)N[C@@H](Cc1ccc(O)cc1)C(=O)N[C@@H](CC(C)C)C(=O)N[C@@H](CCC(N)=O)C(=O)O [P3170] | 1.5 ± 0.4 | – | 0.7
